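Dose response: 5 concentrations. Exposure: 48 h. Format: 96-well plates. Endpoint: linear interpolation; highest concentration if not reached. At the GI50, growth is halved.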 Activity calls are given as the source filed them. Rule as the data show it: active = GI50 up to about 1.1 µM and inactive = higher.
Legend:
Assay in all cases: inhibition of tumour cell growth, NCI panel, 48 h
MCF7 = test system: MCF7
SK-OV-3 = test system: SK-OV-3
SK-MEL-5 = test system: SK-MEL-5
MOLT-4 = test system: MOLT-4
A549 = test system: A549
U-251 = test system: U-251
IGROV-1 = test system: IGROV-1
NCI-H522 = test system: NCI-H522
UACC-62 = test system: UACC-62
OVCAR-4 = test system: OVCAR-4
UACC-257 = test system: UACC-257
NCI-H226 = test system: NCI-H226
RPMI-8226 = test system: RPMI-8226
SF-539 = test system: SF-539
MDA-MB-435 = test system: MDA-MB-435
RXF 393 = test system: RXF 393
NCI/ADR-RES = test system: NCI/ADR-RES
SR = test system: SR
HOP-62 = test system: HOP-62
TK-10 = test system: TK-10

Measured: GI50

C/N=c1\sc2nc(C#N)c(C#N)nc2n1C
inactive: MCF7 18.5 µM | SK-OV-3 28 µM | SK-MEL-5 19.1 µM | MOLT-4 22.8 µM | A549 18 µM | U-251 22.4 µM | IGROV-1 25.2 µM | NCI-H522 15 µM | UACC-62 18.3 µM | OVCAR-4 22.9 µM | UACC-257 24.2 µM | NCI-H226 16.2 µM | RPMI-8226 44.4 µM | SF-539 38.7 µM | MDA-MB-435 21 µM | RXF 393 18.7 µM | NCI/ADR-RES 25.5 µM | SR > 57 µM | HOP-62 23.4 µM | TK-10 25.5 µM

Cc1nc2ccc(S(=O)(=O)O)cc2c(=O)n1-c1ccc(C(=O)NN2C(=O)C(Cl)C2c2ccccc2O)cc1 (stereo not given)
inactive: MCF7 > 100 µM | SK-OV-3 > 100 µM | SK-MEL-5 > 100 µM | MOLT-4 > 100 µM | A549 > 100 µM | U-251 > 100 µM | IGROV-1 > 100 µM | NCI-H522 > 100 µM | OVCAR-4 > 100 µM | UACC-257 > 100 µM | NCI-H226 > 100 µM | RPMI-8226 > 100 µM | SF-539 92.3 µM | MDA-MB-435 > 100 µM | RXF 393 > 100 µM | NCI/ADR-RES > 100 µM | SR > 100 µM | HOP-62 53.5 µM | TK-10 > 100 µM

CCN(C(=O)N[C@@H](CC(C)C)C(=O)NCC(=O)OC)c1ccccc1
inactive: MCF7 > 100 µM | SK-OV-3 > 100 µM | SK-MEL-5 75.5 µM | MOLT-4 > 100 µM | A549 > 100 µM | U-251 > 100 µM | IGROV-1 > 100 µM | NCI-H522 > 100 µM | UACC-62 30.8 µM | OVCAR-4 > 100 µM | UACC-257 25.9 µM | NCI-H226 > 100 µM | RPMI-8226 > 100 µM | SF-539 41 µM | MDA-MB-435 > 100 µM | RXF 393 54 µM | NCI/ADR-RES > 100 µM | SR > 100 µM | HOP-62 > 100 µM | TK-10 > 100 µM

Oc1cccc(-c2cc(=S)ss2)c1
inactive: MCF7 12.8 µM | SK-OV-3 20 µM | SK-MEL-5 5.97 µM | MOLT-4 3.22 µM | A549 18.5 µM | U-251 14.8 µM | IGROV-1 14.4 µM | NCI-H522 6.89 µM | UACC-62 18.5 µM | OVCAR-4 18.6 µM | UACC-257 14.9 µM | NCI-H226 18 µM | RPMI-8226 2.24 µM | SF-539 19.5 µM | MDA-MB-435 20.5 µM | RXF 393 18 µM | NCI/ADR-RES 17.5 µM | SR 2.76 µM | HOP-62 17.6 µM | TK-10 18.5 µM

Cn1c2ccccc2n2c3ccccc3c(=S)c(C#N)c12
inactive: MCF7 > 100 µM | SK-OV-3 > 100 µM | SK-MEL-5 > 100 µM | MOLT-4 > 100 µM | A549 > 100 µM | U-251 > 100 µM | IGROV-1 > 100 µM | NCI-H522 > 100 µM | UACC-62 > 100 µM | OVCAR-4 > 100 µM | UACC-257 > 100 µM | NCI-H226 > 100 µM | RPMI-8226 > 100 µM | SF-539 > 100 µM | MDA-MB-435 > 100 µM | RXF 393 > 100 µM | NCI/ADR-RES > 100 µM | SR > 100 µM | HOP-62 53.1 µM | TK-10 > 100 µM

COc1ccc(CCNC(=O)Cc2cc(OC)c(OC)cc2CO)cc1OC
inactive: MCF7 > 100 µM | SK-OV-3 > 100 µM | SK-MEL-5 > 100 µM | MOLT-4 > 100 µM | A549 > 100 µM | U-251 > 100 µM | IGROV-1 > 100 µM | NCI-H522 > 100 µM | UACC-62 > 100 µM | OVCAR-4 > 100 µM | UACC-257 > 100 µM | NCI-H226 > 100 µM | RPMI-8226 > 100 µM | SF-539 > 100 µM | MDA-MB-435 > 100 µM | RXF 393 > 100 µM | NCI/ADR-RES > 100 µM | SR > 100 µM | HOP-62 > 100 µM | TK-10 > 100 µM

COC(=O)C1=C(OC(=O)/C(=C/c2ccc(Cl)cc2)c2ccccc2)C(C(=O)OC)[C@@]2(O)[C@@H](C(=O)OC)[C@H](C)C[C@@H]1[C@@H]2C(=O)OC (stereo not given in full)
inactive: MCF7 > 100 µM | SK-OV-3 > 100 µM | SK-MEL-5 > 100 µM | MOLT-4 > 100 µM | A549 7.85 µM | U-251 26.7 µM | IGROV-1 23.6 µM | NCI-H522 6 µM | UACC-62 83.6 µM | OVCAR-4 > 100 µM | UACC-257 > 100 µM | NCI-H226 > 100 µM | RPMI-8226 > 100 µM | SF-539 > 100 µM | MDA-MB-435 > 100 µM | RXF 393 3.01 µM | NCI/ADR-RES 37.4 µM | SR > 100 µM | HOP-62 > 100 µM | TK-10 > 100 µM

CC(=O)OC12c3ccccc3-c3ccccc3C1C(C(=O)O)C2(Cl)C(=O)O (stereo not given)
inactive: MCF7 > 10 µM | SK-OV-3 > 10 µM | SK-MEL-5 > 10 µM | MOLT-4 > 10 µM | U-251 > 10 µM | IGROV-1 > 10 µM | NCI-H522 > 10 µM | OVCAR-4 > 10 µM | UACC-257 > 10 µM | NCI-H226 > 10 µM | RPMI-8226 > 10 µM | SF-539 > 10 µM | MDA-MB-435 > 10 µM | RXF 393 > 10 µM | NCI/ADR-RES > 10 µM | SR > 10 µM | HOP-62 > 10 µM | TK-10 > 10 µM

CC1=NN(c2nc(N)nc(/C(C#N)=C/c3cccn3-c3cc(Cl)cc(Cl)c3)n2)C(C)(C)C1
inactive: MCF7 > 100 µM | SK-OV-3 > 100 µM | SK-MEL-5 > 100 µM | A549 > 100 µM | U-251 7.82 µM | IGROV-1 > 100 µM | NCI-H522 > 100 µM | UACC-62 > 100 µM | OVCAR-4 > 100 µM | UACC-257 > 100 µM | NCI-H226 > 100 µM | RPMI-8226 > 100 µM | SF-539 > 100 µM | MDA-MB-435 > 100 µM | RXF 393 > 100 µM | NCI/ADR-RES > 100 µM | SR 1.42 µM | HOP-62 10.1 µM | TK-10 > 100 µM

CNc1ccccc1S(=O)(=O)c1ccccc1[N+](=O)[O-]
inactive: MCF7 85.1 µM | SK-OV-3 > 100 µM | SK-MEL-5 23 µM | MOLT-4 30.8 µM | A549 77.3 µM | U-251 69.7 µM | IGROV-1 > 100 µM | NCI-H522 26 µM | UACC-62 48.8 µM | OVCAR-4 27.2 µM | NCI-H226 65.6 µM | RPMI-8226 > 100 µM | SF-539 > 100 µM | MDA-MB-435 38.2 µM | RXF 393 > 100 µM | NCI/ADR-RES 45.5 µM | SR > 100 µM | HOP-62 > 100 µM | TK-10 > 100 µM

Reference: ChEMBL document CHEMBL1201862, “PubChem BioAssay data set” (2004)
